Data reported in patent US12630573B2, “High-affinity Cu(I) ligands and methods of use thereof” (GEORGIA TECH RESEARCH CORPORATION, priority 2019, dated 2026).

What was measured:
Type in all cases: binding
[1] = Molar ratio titration against BCA copper(I) complex; conditions: linear decrease in absorbance at 562 nm
Procedure: In a quartz cuvette with 1 cm path length, BCA (9.0 μL) was diluted from a 50 mM aqueous stock solution (dissolved by addition of KOH) into 3.0 mL of buffer (10 mM PIPES, 0.1 M KCl, pH 7.0, 25° C.). Furthermore, Cu(II)SO4 (5.0 μL) from a 30 mM stock solution) and sodium ascorbate (7.5 μL from a 60 mM stock solution) were added. After equilibration for 10 minutes, a UV-vis spectrum was recorded, and the solution was titrated in 1-10 μL aliquots with a 3 mM stock solution of phenPS in DMF or naphPS in DMSO. For phenPS, the endpoint occurred at 1.04 molar equivalents on the basis of the mass employed for stock solution preparation, consistent with incomplete removal of the solvent of crystallization as observed by ^1H NMR. An independent molar ratio titration against [Cu(I)MCL-2]PF6 confirmed the stock concentration as 2.88 mM rather than 3.0 mM, and the plotted Cu(I)/phenPS ratio is adjusted accordingly.

[2] = Spectrophotometric Cu(I) competition titration against BCS; conditions: pH 7.0, 10 mM PIPES, 0.1 M KCl, 25° C.
Procedure: An aqueous sodium bathocuproine disulfonate (BCS, Acros Organics) stock solution (60 mM) was prepared calibrated by competition titration against MCL-1 as previously described (Bagchi, P., et al., J. Am. Chem. Soc., 135(49) (2013)). BCS (1.50 mM), sodium ascorbate (150 μM) and CuSO4 (30 μM) were sequentially added via aqueous stock solutions to 3 mL of buffer (10 mM PIPES, 0.1 M KCl, pH 7.0) in a 1-cm path length cuvette equipped with magnetic stirring, and a UV-Vis absorption spectrum was recorded from 650-380 nm. PhenPS was added in 5 μM aliquots from a 2.88 mM stock solution in DMF and an absorption spectrum was acquired after a 2 min equilibration period following each aliquot. The titration was conducted in duplicate, and each dataset was analyzed by nonlinear least squares fitting over the spectral range from 650-400 nm using the Specfit software package from Spectrum Software Associates. The stability constant for naphPS was determined similarly except that the ligand was delivered from a 3.0 mM stock solution in DMSO and a 5-minute equilibration period was required to obtain a stable spectrum after each aliquot.
An aqueous sodium bathocuproine disulfonate (BCS, Acros Organics) stock solution (60 mM) was prepared and calibrated by competition titration against MCL-1 as previously described (Bagchi, P., et al., J. Am. Chem. Soc., 135(49) (2013)). […]

[3] = Molar ratio titration with [Cu(I)MCL-2]PF6; conditions: 10 mM PIPES, 0.1 M KCl, pH 7; fit 250-400 nm
Procedure: In a quartz cuvette with 1 cm path-length, a 50 μM aqueous solution of phenPS was prepared by diluting the ligand from a stock solution (3 mM in DMF) into 2.95 mL of aqueous buffer (10 mM PIPES, 0.1 M KCl, pH 7) under rapid stirring. After recording a UV-vis absorption spectrum from 240 to 500 nm, [Cu(I)MCL-2]PF6 (3 mM stock solution in water) was added in 5 μM aliquots up to 95 μM. The absorption spectrum was recorded after a 1 min mixing period following each aliquot. To derive an accurate reference spectrum of Cu(I)-MCL-2 complex, a separate titration was conducted using pure DMF in place of the phenPS stock solution. The exact concentration of the phenPS stock solution was calibrated against [Cu(I)MCL-2]PF6 by plotting the apparent fractional saturation of the ligand, calculated as f=(A−A0)/(Asat−A0) where A corresponds to the absorbance at 290 nm and the subscripts 0 and sat refer to the spectra at 0 and 50 μM Cu(I), versus nominal molar equivalents of Cu(I) for the first 10 data points (0-0.9 molar equivalents). After concentration correction and subtraction of the DMF background absorption, non-linear least-squares fitting of the titration dataset over the wavelength range 250-400 nm was performed using a fixed log β11 of 21.2 for Cu(I)-phenPS to yield a log β12=31.86±0.07 (log K2=10.66±0.07) for Cu(I)2phenPS.

| SMILES | removal of Cu(I) from BCA complex [1] | dissociation constant Kd of Cu(I) complex [2] | log β12 for Cu(I)2phenPS [3] |
| --- | --- | --- | --- |
| CP(C)(=S)CP(CP(C)(C)=S)c1cccc2cccc(P(CP(C)(C)=S)CP(C)(C)=S)c12 [naphPS, 1,8-Bis(bis(dimethylphosphorothioylmethyl)phosphino)naphthalene] | quantitative removal of Cu(I) |  |  |
| CP(C)(=S)CP(CP(C)(C)=S)c1ccccc1P(CP(C)(C)=S)CP(C)(C)=S [phenPS, 1,2-Bis(bis(dimethylphosphorothioylmethyl)phosphino)benzene] | quantitative removal of Cu(I) | 0.6 zM | 31.86±0.07 |
